Patent US5407660A, “Diagnostic liposomal compositions for enhancing NMR imaging” (Mallinckrodt Medical, Inc., priority 1993, dated 1995)
Read-outs that look alike come from different tables or passages of the source.

Experiments:
[1] = Acute intravenous toxicity of GdNa2 DTPA in mice (Example 7); assay type: in vivo, Swiss CF-1 albino mice
Excerpt: The acute intravenous toxicity of disodium (diethylenetriaminepentaacetato)gadolinium (III) (composition C of Example 1) was studied.
A total of 16 Swiss CF-1 albino mice (8 male, 22.0-25.6 g; 8 female, 18.2-24.1 g) were used. Picric acid markings were used for individual identification.
The protocol of Example 4 was used. Groups of 2-4 mice, with sexes equally represented, received single intravenous doses of the test substance according to the following schedule: […]

[2] = Abdominal NMR imaging in rabbits (Example 11); assay type: in vivo
Procedure: Two rabbits were anesthetized and abdominal NMR images were obtained in the General Electric NMR scanner. Rabbits then received intravenous doses of 0.3 ml/kg (0.5 mmol Gd(III)/kg) of the preparation of composition D of Example 1 (GdNa2 DTPA) and additional abdominal NMR images were made over a period of two hours after dosing.

[3] = for Blood T1: before contrast 510
[4] = 0.34 mmol Gd(III)/kg, 10 minutes

## O=C([O-])CN(CCN(CC(=O)[O-])CC(=O)[O-])CCN(CC(=O)[O-])CC(=O)[O-].[Gd+3].[Na+].[Na+] [GdNa2 DTPA, disodium (diethylenetriaminepentaacetato)gadolinium (III)]
[1]; intravenous, mice
  dose up to which no deaths were observed: 12000 mg/kg
[1]; mouse
  acute intravenous toxicity profile (in words): relatively safe mouse acute intravenous toxicity profile
[1]; mouse, in vivo
  body weight (in words): slight reduction in body weight
  respiratory distress: respiratory distress was observed
  time until all mice appeared normal: ≤ 6 h
[2]; 0.3 ml/kg (0.5 mmol Gd(III)/kg) i.v.
  renal medulla and renal cortex proton images: Marked alteration
[2]; 0.3 ml/kg i.v.
  time of peak effects on renal images: ≤ 15 min
0.51 mmol/kg, 5 minutes
  Mean T1, Blood: 292 ms
0.51 mmol/kg, 10 minutes
  Mean T1, Blood: 321 ms
0.51 mmol/kg, 15 minutes
  Mean T1, Blood: 337 ms
  Mean tissue T1, Fat: 61 ms
  Mean tissue T1, Heart: 267 ms
  Mean tissue T1, Large Intestine: 228 ms
  Mean tissue T1, Liver: 172 ms
  Mean tissue T1, Lung: 303 ms
  Mean tissue T1, Pancreas: 172 ms
  Mean tissue T1, Renal Cortex: 137 ms
  Mean tissue T1, Renal Medulla: 130 ms
  Mean tissue T1, Skel. Muscle: 217 ms
  Mean tissue T1, Small Intestine: 224 ms
  Mean tissue T1, Spleen: 257 ms
  Mean tissue T1, Stomach: 219 ms
0.1, 0.3 and 1.0 ml/kg i.v.
  changes in T1 relative to changes in T2: generally greater than changes in T2 values
  tissue and blood T1 and T2 values (in words): Dose-related changes in tissue and blood T1 and T2 values
  tissues with the most profound effects on T1: blood and kidneys (both cortex and medulla) with large intestine, pancreas and stomach the next most sensitive
rabbit, in vivo, iv
  Cardiovascular effects: minimal
[3]; 0.17 mmol Gd(III)/kg, 10 minutes
  T1, infarcted regions of heart muscle: 290 ms
[3]; 0.17 mmol Gd(III)/kg, 10 minutes, untreated 330
  T1, normally perfused myocardial tissue: 180 ms
[3]; 0.34 mmol Gd(III)/kg
  average T1, infarcted tissue: 230 ms
[3]; 0.34 mmol Gd(III)/kg, 5 minutes
  Blood T1: 50 ms
[3]; [4]
  images of excised hearts, normal versus infarcted tissue: marked differences between normal and infarcted tissues
  Blood T1: 100 ms
[3]; 0.34 mmol Gd(III)/kg, untreated 330
  average T1, normally perfused myocardium: 135 ms
